Experimental data: PMC4775916 (Antimicrobial Agents and Chemotherapy, 2016)
Values joined by “and” are separate entries in the source; they are usually repeats but may differ in a detail not shown here. Equal values may be shown once. Read-outs that look alike come from different tables or passages of the source.

Experiments:
[1] = molecular target: T1, VIM-5 (Pseudomonas aeruginosa, UniProt A0A0F7KYQ8, A128K/E202A/H201L/K257T/S205R); test: Steady-state kinetics of β-lactam substrate hydrolysis; assay type: biochemical; conditions: 50 mM HEPES pH 7.2, apparent for ampicillin and ceftazidime; for Km: read-out: Mean Km ± SD VIM-5
T1 construct: His6 with HRV3C cleavage site (pET-28a) (N, cleaved yes); made in house; host or cells: E. coli BL21(DE3)
Method: (§1) The hydrolysis of a representative panel of β-lactam substrates was monitored at their respective absorbance wavelengths. The wavelengths and extinction coefficients used were previously described ([34]). The assays were carried out using 50 mM HEPES buffer (pH 7.2) supplemented with 1 μg/ml bovine serum albumin (BSA), 1 μM ZnSO4, and 0.01% Triton X-100. In the case of VIM-1, C-terminally His6-tagged VIM-1 was used for kinetic analyses. Note that no differences were observed between the activities of untagged VIM-1 and C-terminally His6-tagged VIM-1 for the selected antibiotics (data not shown). The initial rates were obtained from the changes in absorbance at various substrate concentrations. Steady-state kinetic parameters (Km and kcat) were determined by fitting the initial velocity data to the Michaelis-Menten equation using GraphPad Prism 5.01 software (see Table S4 in the supplemental material).

[2] = tested on: VIM-38; test: as above; assay type: biochemical; conditions: VIM-38 versus VIM-1
Method: as §1

[3] = molecular target: T2, VIM-38 (Pseudomonas aeruginosa, UniProt A0A0F7KYQ8, A128K/A265V/E202A/H201L/K257T/S205R); test: as above; assay type: biochemical; conditions: 50 mM HEPES pH 7.2, apparent for ampicillin and ceftazidime; for Km: read-out: Mean Km ± SD VIM-38
T2 construct: The N- and C- terminal residues of the mature enzymes are labelled 26; His6 with HRV3C cleavage site (pET-28a) (N, cleaved yes); made in house; host or cells: E. coli BL21(DE3)
Method: as §1

[4] = tested on: VIM-5; test: as above; assay type: biochemical; conditions: VIM-5 versus VIM-1
Method: as §1

[5] = tested on: VIM-5; parameters: method as in Garcar et al. (6); conditions: previous studies ref Garcar et al. (6), cited from earlier work
[6] = tested on: VIM-2; assay type: biochemical; conditions: VIM-2 versus VIM-1
Method: as §1

[7] = molecular target: T3, VIM-1 (Pseudomonas aeruginosa, UniProt A0A0F7KYQ8); conditions: previous studies ref Franceschini et al. (4), cited from earlier work
T3 construct: The N- and C- terminal residues of the mature enzymes are labelled 26; made in house

[8] = molecular target: T3, VIM-1; test: Steady-state kinetics of β-lactam substrate hydrolysis; assay type: biochemical; conditions: C-terminally His6-tagged VIM-1; 50 mM HEPES pH 7.2; apparent for ampicillin and ceftazidime
Method: as §1

[9] = tested on: VIM-2; parameters: method as in Poirel et al. (5); conditions: previous studies ref Poirel et al. (5), cited from earlier work
[10] = molecular target: T1, VIM-5; test: Nitrocefin hydrolysis kinetics before thermal denaturation and after refolding; assay type: biochemical
Method: (§2) Circular dichroism (CD) analyses were carried out using a Chirascan CD spectrophotometer (Applied Photophysics) equipped with a Peltier temperature-controlled cell holder. CD measurements were collected in the range of 185 to 260 nm; spectra were baseline corrected and smoothed using a Savitzky-Golay filter. Data were normalized at 207 nm to account for differences in protein concentrations ([38]), and the estimation of secondary structure content was performed with Dichro Web ([39]) using the CONTIN Analysis Programme (reference set 6) ([40]). Melting temperatures (Tm) of the recombinant enzymes were determined by monitoring temperature-induced changes in the CD signal at 222 nm. The temperature was increased by 1°C per min, and the CD signal was recorded at temperatures ranging from 25°C to 92°C. The samples were then cooled from 92°C to 25°C at the same rate, and a CD spectrum of the refolded proteins was determined. The activity of the enzymes was recorded before thermal denaturation and after refolding by monitoring nitrocefin hydrolysis. The thermal denaturation data were fitted to a Boltzmann sigmoidal curve by using GraphPad Prism 5.0 software. CD spectra and thermal denaturation curves are shown in Fig. 2 and in Tables S2 and S3 in the supplemental material.

[11] = molecular target: T4, VIM-4 (Pseudomonas aeruginosa, UniProt A0A0F7KYQ8, S205R); test: as above; assay type: biochemical
T4 construct: His6 (N, cleaved yes); made in house
Method: as §2

[12] = molecular target: T2, VIM-38; test: as above; assay type: biochemical
Method: as §2

[13] = molecular target: T3, VIM-1; test: as above; assay type: biochemical
Method: as §2

[14] = molecular target: T5, VIM-2 (Escherichia coli, UniProt Q5U7L7); test: as above; assay type: biochemical
T5 construct: His6 (N, cleaved yes); made in house
Method: as §2

[15] = molecular target: T1, VIM-5; test: Inhibition of enzyme-mediated nitrocefin hydrolysis; assay type: biochemical
Method: (§3) Inhibitors were prepared as reported previously ([36], [41]). Enzyme-mediated hydrolysis of nitrocefin was monitored by determining the changes in absorbance at 495 nm, as previously described ([36], [37]). Residual activities were first determined at a 100 μM inhibitor concentration. […] The residual activities were obtained at increasing inhibitor concentrations (0.2 to 2,000 μM); the data were analyzed using GraphPad Prism 5.01 software.

[16] = tested on: VIM-2; test: as above; assay type: biochemical; conditions: VIM-2 versus VIM-5 and VIM-38
Method: as §3

[17] = tested on: VIM-38; test: as above; assay type: biochemical; conditions: VIM-38 versus VIM-1
Method: as §3

[18] = molecular target: T4, VIM-4; test: as above; assay type: biochemical; conditions: for IC50: read-out: IC50 VIM-4 (H224, R228)
Method: as §3

[19] = molecular target: T2, VIM-38; test: as above; assay type: biochemical
Method: as §3

[20] = molecular target: T3, VIM-1; test: as above; assay type: biochemical; conditions: read-out: IC50 VIM-1 (H224, S228)
Method: as §3

[21] = molecular target: T5, VIM-2; test: as above; assay type: biochemical; conditions: read-out: IC50 VIM-2 (Y224, R228)
Method: as §3

[22] = tested on: VIM-5; test: as above; assay type: biochemical; conditions: VIM-5 versus VIM-1
Method: as §3

[23] = molecular target: T1, VIM-5; test: 1H CPMG NMR binding assay (thiomandelic acid reporter ligand displacement)
Method: (§4) Binding assays were carried out using ^1H-edited Carr-Purcell-Meiboom-Gill (CPMG) nuclear magnetic resonance (NMR) analyses. Spectra were recorded by using a Bruker AVIII 600-MHz NMR spectrometer equipped with a BB-F/^1H Prodigy N2 cryoprobe using 3-mm Match NMR tubes (Cortectnet). The PROJECT-CPMG sequence (90°x-[τ-180°y-τ-90°y-τ-180°y-τ]n-acq) was applied, and water suppression was achieved by presaturation. […] Assays were conducted using 50 mM Tris-D11 (pH 7.5) supplemented with 0.02% NaN3 in 90% H2O and 10% D2O. Equilibrium dissociation constant (KD) measurements for the reporter ligand (50 μM thiomandelic acid) and inhibitors (0 to 300 μM) were carried out as previously reported ([43]). Data were processed with Bruker 3.1 software and fitted by using Origin Pro8.5.1 (see Table S5 in the supplemental material).
(§5) *Apparent kinetic parameters were reported for ampicillin and ceftazidime hydrolysis. #C-terminal His -tagged […]
(§6) VIM-1 was used for kinetic analyses.
(§7) Table S5. Apparent KD curve fitting for the binding of inhibitors (1) and (2) to VIM-2 and […]
(§8) Apparent KD fitting as monitored by 1H CPMG NMR spectra of the signal recovery of thiomandelic acid (50 μM) upon addition of increasing concentrations of 1 and 2 with a final enzyme concentration of 50 μM VIM-2/VIM-5. Assays were conducted in 50 mM Tris-D11 (pH […]
(§9) (also on this page, place not known: K D Tris-D 11 His6-tagged V0 (µM/ s) NN OHO % thiomandelic acid displacement µM % thiomandelic acid displacement) […]

[24] = molecular target: T5, VIM-2; test: as above; conditions: 50 μM thiomandelic acid, 50 μM enzyme, 50 mM Tris-D11 pH 7.5, read-out: KD app VIM-2
Method: as §4, §5, §6, §7, §8, §9
For IC50 VIM-4 (H224, R228) in this document: 10 min preincubation.

## CO[C@@]1(NC(=O)Cc2cccs2)C(=O)N2C(C(=O)O)=C(COC(N)=O)CS[C@@H]21 [Cefoxitin]
[1]
  kcat VIM-5: 460 s⁻¹
  Km: 320 ± 60 µM
[2]
  fold increase in kcat/Km of VIM-38 over VIM-1: > 7 fold
  fold-higher kcat of VIM-38 than VIM-1: > 10 fold
[3]
  kcat VIM-38: 340 s⁻¹
  Km: 230 ± 60 µM
[4]
  fold increase in kcat/Km of VIM-5 over VIM-1: > 7 fold
  fold-higher kcat of VIM-5 than VIM-1: > 10 fold

## C[C@@H](O)[C@H]1C(=O)N2C(C(=O)O)=C(SCCN=CN)C[C@H]12 [Imipenem]
[5]
  kcat VIM-5 (previous study): 3.5 s⁻¹
[5]; read-out: Km VIM-5 (previous study)
  Km: 12 µM
[6]
  fold increase in kcat/Km of VIM-2 compared to VIM-1: 6 fold
[7]
  kcat VIM-1 (previous study): 2 s⁻¹
[7]; read-out: Km VIM-1 (previous study)
  Km: 1500 nM
[1]
  kcat VIM-5: 58 s⁻¹ and 60 s⁻¹
  Km: 58 µM and 60 µM
[3]
  kcat VIM-38: 90 s⁻¹
  Km: 150 ± 20 µM
[8]
  kcat VIM-1: 30 s⁻¹
[9]
  kcat VIM-2 (previous study): 9.9 s⁻¹
[9]; read-out: Km VIM-2 (previous study)
  Km: 10 µM

## O=C(Cc1cccs1)N[C@@H]1C(=O)N2C(C(=O)O)=C(/C=C/c3ccc([N+](=O)[O-])cc3[N+](=O)[O-])CS[C@H]12 [Nitrocefin]
[1]
  kcat VIM-5: 420 s⁻¹
  Km: 50 ± 5 µM
[3]
  kcat VIM-38: 720 s⁻¹
  Km: 70 ± 10 µM
[10]; after refolding
  kcat VIM-5 after refolding: 100 s⁻¹
[10]; after refolding, read-out: Km VIM-5 after refolding
  Km: 11 ± 1 µM
[10]; pre-heating
  kcat VIM-5 pre-heating: 210 s⁻¹
[10]; pre-heating, read-out: Km VIM-5 pre-heating
  Km: 45 ± 3 µM
[11]; after refolding
  kcat VIM-4 after refolding: 180 s⁻¹
[11]; after refolding, read-out: Km VIM-4 after refolding
  Km: 30 ± 2 µM
[11]; pre-heating
  kcat VIM-4 pre-heating: 340 s⁻¹
[11]; pre-heating, read-out: Km VIM-4 pre-heating
  Km: 45 ± 1 µM
[12]; pre-heating
  kcat VIM-38 pre-heating: 690 s⁻¹
[12]; read-out: Km VIM-38 after refolding, after refolding
  Km: 40 ± 4 µM
[12]; read-out: Km VIM-38 pre-heating, pre-heating
  Km: 55 ± 6 µM
[13]; after refolding
  kcat VIM-1 after refolding: 12 s⁻¹
[13]; pre-heating
  kcat VIM-1 pre-heating: 25 s⁻¹
[14]; after refolding
  kcat VIM-2 after refolding: 290 s⁻¹
[14]; pre-heating
  Km: 13 ± 1 µM
  kcat VIM-2 pre-heating: 290 s⁻¹

## O=C(N[C@H](Cc1c[nH]c2ccccc12)C(=O)O)c1nc(Cl)c2ccccc2c1O [compound 1]
[15]
  IC50: 2 µM
[16]
  fold-higher IC50 of VIM-2 than VIM-5 and VIM-38: > 40 fold
[17]
  better inhibitor of VIM-38 than VIM-1 (IC50 ratio): > 500 fold
[18]; VIM-4 versus VIM-5 and VIM-38
  fold-higher IC50 of VIM-4 than VIM-5 and VIM-38: > 40 fold
[18]
  IC50: 200 µM
[19]
  IC50: 2 µM
[20]
  IC50: > 1000 µM
[21]
  IC50: 90 µM
[22]
  better inhibitor of VIM-5 than VIM-1 (IC50 ratio): > 500 fold
[23]
  Kd: 140 µM
[24]
  Kd: 180 µM

## O=C(N[C@@H](Cc1c[nH]c2ccccc12)C(=O)O)c1nc(Cl)c2ccccc2c1O [compound 2]
[15]
  IC50: 50 µM
[18]
  IC50: 600 µM
[19]
  IC50: 80 µM
[20]
  IC50: 60 µM
[21]
  IC50: 300 µM
[23]
  Kd: 180 µM
[24]
  Kd: 330 µM
